In US5817755A, “Synthetic peptide analogs of cross-linked N-telopeptides of type I collagen” (Washington Research Foundation, priority 1997, dated 1998):
Non-standard residues stand in square brackets, D forms with d. Residues, ends and D or L forms follow the SMILES beside them. pGlu = O=C1CC[C@@H](C(=O)O)N1

Assays:
mAb 1H11 [1] = conditions: linear peptides in which K is simply lysine; WO 91/08478; Hanson et al. 1992; cited from earlier work
mAb 1H11 [2] = assay: OSTEOMARK competitive immunoassay testing apparent affinity of synthetic peptides for mAb 1H11; format: binding; conditions: for Results: peptide binding to mAb 1H11, 1 μg synthetic peptide = X nmole BCE: nanomoles Bone Collagen Equivalents equivalent to 1 μg peptide, back fit into OSTEOMARK standard curve, values between 0.5 and 1 OD averaged; for binding to mAb 1H11 (in words): synthetic peptide, antibody inhibition assay
Excerpt: Generally, a milligram per mL solution of the peptide was made in PBS. The absorbence at A280 was read and the concentration confirmed. Dilutions of the peptide were then made in a buffer such as OSTEOMARK (TM) calibrator diluent (OSTEOMARK Assay, Ostex International, Seattle, Wash.). Working strength concentrations were between 10 and 0.01 micrograms per milliliter.
To test the apparent affinity of the synthetic peptides for mAb 1H11, the OSTEOMARK assay was run using OSTEOMARK kits and components, including monoclonal antibody 1H11. A standard curve was run using OSTEOMARK calibrators. Peptide samples were generally tested at 10, 3, 1, and down to 0.01 μG per mL. The standard OSTEOMARK curve was generated using a four parameter logistic curve fit program (MedData Inc., N.Y., N.Y.). Peptide values were back fit into the standard curve and values were reported in picomoles Bone Collagen Equivalents (BCE)/mL (which equals nanomolar BCE, or nM BCE).
Values in the Table are reported as the number of nanomoles of BCE equivalent to a microgram of a given peptide. Antibody binding values below 500 nMole BCE were considered to be commercially insignificant.

Row | Results: peptide binding to mAb 1H11, 1 μg synthetic peptide = X nmole BCE (mAb 1H11 [2]) [nmole BCE] | binding to mAb 1H11 (in words) (mAb 1H11 [2]) | Results: peptide binding to mAb 1H11, 1 μg synthetic peptide = X nmole BCE (mAb 1H11 [2]; listed as 3) [nmole BCE] | Compound | recognition by mAb 1H11 (in words) (mAb 1H11 [1])
1 | 100 | very weak binding partner |  | CC(C)[C@H](NC(=O)CNC(=O)[C@H](CCCCN)NC(=O)CNC(=O)[C@H](CC(=O)O)NC(=O)[C@H](Cc1ccc(O)cc1)NC(=O)[C@@H]1CCC(=O)N1)C(=O)NCC(=O)O [SEQ ID NO:9, J Y D G K G V G] ([pGlu]YDGKGVG-OH) | recognized very weakly
2 | 400 |  |  | CC(C)[C@H](NC(=O)CNC(=O)[C@H](CC(=O)O)NC(=O)[C@H](Cc1ccc(O)cc1)NC(=O)[C@@H]1CCC(=O)N1)C(=O)NCC(=O)N[C@H](C(=O)NCC(=O)O)C(C)C [SEQ ID NO:18, J Y D G V G V G] ([pGlu]YDGVGVG-OH) | 
3 | 650 | more limited degree of 1H11 binding |  | CC(C)[C@H](NC(=O)CNC(=O)[C@H](Cc1c[nH]cn1)NC(=O)CNC(=O)[C@H](CC(=O)O)NC(=O)[C@H](Cc1ccc(O)cc1)NC(=O)[C@@H]1CCC(=O)N1)C(=O)NCC(=O)O [SEQ ID NO:7, J Y D G H G V G] ([pGlu]YDGHGVG-OH) | 

Further lines, the compound ahead of its results:

Row | Compound | Results: peptide binding to mAb 1H11, 1 μg synthetic peptide = X nmole BCE (mAb 1H11 [2]) [nmole BCE] | binding to mAb 1H11 (in words) (mAb 1H11 [2]) | Results: peptide binding to mAb 1H11, 1 μg synthetic peptide = X nmole BCE (mAb 1H11 [2]; listed as 3) [nmole BCE] | recognition by mAb 1H11 (in words) (mAb 1H11 [1])
4 | CC(C)[C@H](NC(=O)CNC(=O)[C@H](CC(=O)O)NC(=O)CNC(=O)[C@H](CC(=O)O)NC(=O)[C@H](Cc1ccc(O)cc1)NC(=O)[C@@H]1CCC(=O)N1)C(=O)NCC(=O)O [SEQ ID NO:3, J Y D G D G V G] ([pGlu]YDGDGVG-OH) |  |  | 1840 | 
5 | J Y D G C G V G [SEQ ID NO:2] | 2500 | excellent binding to mAb 1H11 |  | 
6 | CC(C)[C@H](NC(=O)CNC(=O)[C@H](CCC(=O)O)NC(=O)CNC(=O)[C@H](CC(=O)O)NC(=O)[C@H](Cc1ccc(O)cc1)NC(=O)[C@@H](N)CCC(=O)O)C(=O)NCC(=O)O [EYDGEGVG] (H-EYDGEGVG-OH) |  | not recognized |  | 
7 | CC(C)[C@H](NC(=O)CNC(=O)[C@H](Cc1ccccc1)NC(=O)CNC(=O)[C@H](CC(=O)O)NC(=O)[C@H](Cc1ccc(O)cc1)NC(=O)[C@@H]1CCC(=O)N1)C(=O)NCC(=O)O [SEQ ID NO:5, J Y D G F G V G] ([pGlu]YDGFGVG-OH) | 365 |  |  | 
